# Measured values reported in patent US9987294B2, “Mitochondria-targeted anti-tumor agents” (University of Massachusetts, priority 2007, dated 2018).
# “Also recorded” adds a separate entry of the source. Where a SMILES comes first, the peptide text is derived from it. [ ]: non-standard residue; d: D form.
# Tests used:
# tumor cells = assay: Cell viability by MTT, tumor cell types; format: cell-based; details: 1 hour exposure; MTT
# HeLa cells [1] = assay: Time-lapse videomicroscopy of cell morphology; format: cell-based, human; details: within minutes
# Experimental: For time lapse videomicroscopy, HeLa cells were maintained in 35 mm glass-bottom tissue-culture dishes (Mat-tek). Prior to imaging, cells were incubated with 400 nM CM-H2XRos (M7513, Molecular Probes) under growth conditions for 15 minutes. After washes, fresh culture medium was added, and cells were imaged in an environmental chamber (PDMI-2; Harvard Apparatus) in complete medium with CO2 exchange (0.5 liters/minute) at 37° C. Cells were imaged every 1 minute using a 100× phase contrast lens with a green interference filter on an inverted microscope (Olympus IX-70). Images were captured on a CoolSnap HQ CCD camera (Roper Scientific) and concatenated using Metamorph software (Universal Imaging Corp.). Cells were imaged in the absence of any reagent for the first 10 minutes of the time lapse, at which point Shepherdin or cell permeable scrambled peptidomimetic was added dropwise in between acquisitions. Phase-contrast images of mitochondria were verified by the presence of CM-H2XRos labeling.
# HeLa cells [2] = assay: Cytochrome c release into the cytosol of treated tumor cells (Western blotting); format: cell-based, human
# HeLa cells [3] = assay: Cell viability by MTT, HeLa cells; details: 50 μM; cultures not treated with CsA
# [4] = test system: mitochondria isolated from Raji lymphoblastoid cells; assay: Cytochrome c release from isolated mitochondria (Western blotting); format: biochemical, human
# Experimental: (§1) Tumor cell types were treated with controls or the various Hsp90 antagonists, and cytosolic extracts were harvested at increasing time intervals between 5-30 minutes and analyzed by Western blotting. For experiments in a cell-free system, purified mitochondria (20 μg) were suspended in 500 μl of SB buffer (0.2 M sucrose, 10 mM Tris-MOPS, pH 7.4, 5 mM succinate, 1 mM sodium phosphate, 10 μM EGTA-Tris, and 2 μM rotenone). Samples were treated with controls or the various Hsp90 antagonists for 20 minutes at 22° C. At the end of each incubation reaction, mitochondria and supernatants were separated by centrifugation at 6,000×g for 10 minutes, and analyzed by Western blotting.
# [5] = test system: mitochondria isolated from WS-1 normal human fibroblasts; assay: Mitochondrial membrane potential of TMRM-loaded isolated mitochondria; format: biochemical
# Experimental: (§2) Raji cells were treated with Shepherdin or control scrambled peptidomimetic (100 μM) or 17-AAG (5 μM), loaded with the mitochondrial membrane potential-sensitive fluorescent dye JC-1, and analyzed for changes in green/red fluorescence ratio by flow cytometry. For experiments in a cell-free system, purified mitochondria isolated from primary normal cells, various tumor cells types, or normal mouse organs were suspended in SB buffer. […] For these experiments, TMRM-loaded mitochondria in SB buffer were allowed to reach stable fluorescence, which was set as fully polarized state (maximum membrane potential). The fluorescence intensity after treatment with 2 mM CaCl2 was set as minimum membrane potential (fully depolarized state). Changes in fluorescence intensity after each treatment were plotted as a ratio between maximum and minimum membrane potential.
# Alternatively, H460 cells were labeled with the fluorescent dye JC-1 (Molecular Probes), and analyzed for changes in red/green (F1-2/F1-1) fluorescence ratio after treatment with the various agents, by multiparametric flow cytometry. Cytochrome c content in pellets or supernatants of drug-treated isolated mitochondria was determined by Western blotting.
# [6] = test system: normal mouse liver mitochondria; assay: Cytochrome c and Smac content of isolated mitochondria (Western blotting); format: biochemical
# Experimental: as §1
# Raji cells = assay: Mitochondrial membrane potential in JC-1-loaded cells (flow cytometry); format: cell-based, human; details: within five minutes of addition
# Experimental: as §2
# [7] = test system: primary human sarcoma sample mitochondria; assay: Cytochrome c release from isolated mitochondria (Western blotting); format: biochemical
# Experimental: as §1
# [8] = test system: mitochondria isolated from a p53−/− mouse lymphoma specimen; assay: as above; format: biochemical
# Experimental: as §1
# [9] = test system: purified HeLa cell mitochondria; assay: Mitochondrial membrane potential of TMRM-loaded isolated mitochondria; format: biochemical, human; details: TMRM-loaded HeLa cell (tumor) mitochondria
# Experimental: as §2
# [10] = test system: mitochondria purified from B-lymphoblastoid Raji cells; assay: as above; format: biochemical, human
# Experimental: as §2
# [11] = test system: normal mouse liver mitochondria; assay: as above; format: biochemical
# Experimental: as §2
# [12] = test system: normal mouse brain mitochondria; assay: as above; format: biochemical
# Experimental: as §2
# [13] = test system: Ras-transformed NIH3T3 mitochondria; assay: as above; format: biochemical
# Experimental: as §2
# [14] = test system: mitochondria isolated from normal NIH3T3 cells; assay: as above; format: biochemical
# Experimental: as §2, with “potential. In some experiments, increasing concentrations (10-100 μg) of TMRM-loaded mitochondria isolated from HeLa or MCF-7 cells were diluted in 3 ml of SB buffer, normalized to a total protein concentration of 500 μg with BSA, and analyzed for changes in membrane potential in response to control or the various Hsp90 antagonists.” for “potential.”
# [15] = test system: normal human fibroblast cell types (WS-1, HGF, HFF); assay: Cell viability by MTT, normal human fibroblast cell types
# Experimental: Changes in protein expression in the various experiments of siRNA targeting were assessed by Western blotting. For analysis of TRAP-1-directed cytoprotection, primary nontransformed human fibroblasts HFF and WS-1 were transfected with control pcDNA3 or TRAP-1 cDNA by lipofectamine for 24 hours, exposed to increasing concentrations (0-1 μM) of the cell death stimulus staurosporine (STS), and analyzed for cell viability after additional 24 hours incubation by MTT. For analysis of apoptosis, p53+/+ or p53−/−HCT116 cells were treated with control or ANT-GA (100 μM), and analyzed for DEVDase activity (CaspaTag) and propidium iodide staining by simultaneous multiparametric flow cytometry, as described (Dohi et al., J. Clin. Invest. 114(8):1117-27, (2004); Plescia et al., Cancer Cell, 7:457-468, (2005)).
structure (smiles),measurement,setting,value
CSCC[C@@H](NC(=O)[C@@H](CCCCN)NC(=O)[C@@H](Cc1c[nH]c2ccccc12)NC(=O)[C@@H](CCCCN)NC(=O)[C@H](N)CCCCN)C(=O)N[C@H](CCCNC(=N)N)C(=O)N[C@H](CCCNC(=N)N)C(=O)N[C@H](CC(N)=O)C(=O)N[C@H](CCC(N)=O)C(=O)N[C@H](Cc1ccccc1)C(=O)N[C@H](Cc1c[nH]c2ccccc12)C(=O)N[C@@H](C(=O)N[C@H](CCCCN)C(=O)N[C@@H](C(=O)N[C@H](CCC(N)=O)C(=O)N[C@H](CCCNC(=N)N)C(=O)N[C@H](CC(C)C)C(=O)N[C@H](Cc1ccccc1)C(=O)N[C@H](C)C(=O)N[C@H](CS)C(=O)NCC(=O)N[C@H](CO)C(=O)N[C@H](CO)C(=O)N[C@H](Cc1c[nH]cn1)C(=O)N[C@H](CCCCN)C(N)=O)C(C)C)C(C)C [Sheph-ANT] (H-[dK][dK][dW][dK][dM][dR][dR][dN][dQ][dF][dW][dV][dK][dV][dQ][dR][dL][dF][dA][dC]G[dS][dS][dH][dK]-NH2; N-terminus and C-terminus assumed),tumor cell viability / killing,tumor cells,sufficient to kill disparate tumor cell types in a concentration-dependent manner; also recorded: triggered selective tumor cell death
same,morphological features of apoptosis,HeLa cells [1],exhibited within minutes morphological features of apoptosis
same,cytochrome c release into the cytosol,HeLa cells [2],discharge of mitochondrial cytochrome c in the cytosol
same,cell killing,HeLa cells [3],complete cell killing
same,release of cytochrome c from mitochondria,[4],concentration-dependent release of cytochrome c; also recorded: reduces mitochondrial Cyt c in a dose-dependent manner
same,membrane potential of mitochondria,[5]; WS-1 normal human fibroblasts,did not cause loss of membrane potential
same,membrane potential of mitochondria,"[5]; glucose-deprived WS-1, compared with Scram-ANT",did not significantly affect membrane potential
same,mitochondrial membrane potential of normal cells,"[5]; summary for normal cells (FIGS. 4A, C, E, G)",did not affect mitochondrial membrane potential of normal cells over background levels
same,cytochrome c or Smac levels of mitochondria,[6],had no effect on cytochrome c or Smac levels
same,mitochondrial membrane potential in tumor cells,Raji cells,induced loss of mitochondrial membrane potential in tumor cells
same,release of cytochrome c from mitochondria,[7],concentration-dependent release of cytochrome c; also recorded: increases Cyt c release into the supernatant in a dose-dependent manner
same,cytochrome c release from mitochondria,[8],induced cytochrome c release
same,mitochondrial membrane potential,[9],caused sudden loss of mitochondrial membrane potential; also recorded: induces a change in mitochondrial membrane potential
same,membrane potential of mitochondria,[10],readily depolarized mitochondria
same,membrane potential of mitochondria,[11],"did not affect membrane potential; also recorded: had no effect on normal liver mitochondria, with or without CsA"
same,membrane potential of mitochondria,[12],did not affect membrane potential
same,membrane potential of mitochondria,[13],readily depolarized Ras-transformed NIH3T3 mitochondria
same,membrane potential of mitochondria,[14],had no effect on mitochondria isolated from normal NIH3T3 cells
same,viability of normal human fibroblast cell types,[15],did not affect the viability of various normal human fibroblast cell types
